Assays:
Assay in all cases: radiometric filter-binding kinase assay, Kinase HotSpot
Settings in all cases: compound 0.5 µM; ATP 10 µM
[1] = molecular target: ALK (human) (UniProt Q9UM73)
[2] = molecular target: BLK (human) (UniProt P51451)
[3] = molecular target: BRSK2 (human) (UniProt Q8IWQ3)
[4] = molecular target: CAMKK2 (human) (UniProt Q96RR4)
[5] = molecular target: CDK6 CCND3 (human) (UniProt P30281+Q00534)
[6] = molecular target: CLK2 (human) (UniProt P49760)
[7] = molecular target: CSK (human) (UniProt P41240)
[8] = molecular target: CSNK2A1 (human) (UniProt P68400)
Chain of CSNK2A1 (human) (P68400 whole entry, looked up): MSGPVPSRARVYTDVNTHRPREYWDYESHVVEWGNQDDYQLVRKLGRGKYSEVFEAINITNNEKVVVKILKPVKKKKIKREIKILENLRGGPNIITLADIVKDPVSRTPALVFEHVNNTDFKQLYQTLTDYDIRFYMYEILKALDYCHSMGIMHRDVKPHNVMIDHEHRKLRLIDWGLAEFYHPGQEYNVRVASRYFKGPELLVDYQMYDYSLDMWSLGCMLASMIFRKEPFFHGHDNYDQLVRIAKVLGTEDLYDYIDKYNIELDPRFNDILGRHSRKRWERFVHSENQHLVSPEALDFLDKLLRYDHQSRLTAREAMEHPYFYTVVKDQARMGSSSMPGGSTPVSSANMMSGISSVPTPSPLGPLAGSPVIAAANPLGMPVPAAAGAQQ

[9] = molecular target: DAPK2 (human) (UniProt Q9UIK4)
Chain of DAPK2 (human) (Q9UIK4 whole entry, looked up): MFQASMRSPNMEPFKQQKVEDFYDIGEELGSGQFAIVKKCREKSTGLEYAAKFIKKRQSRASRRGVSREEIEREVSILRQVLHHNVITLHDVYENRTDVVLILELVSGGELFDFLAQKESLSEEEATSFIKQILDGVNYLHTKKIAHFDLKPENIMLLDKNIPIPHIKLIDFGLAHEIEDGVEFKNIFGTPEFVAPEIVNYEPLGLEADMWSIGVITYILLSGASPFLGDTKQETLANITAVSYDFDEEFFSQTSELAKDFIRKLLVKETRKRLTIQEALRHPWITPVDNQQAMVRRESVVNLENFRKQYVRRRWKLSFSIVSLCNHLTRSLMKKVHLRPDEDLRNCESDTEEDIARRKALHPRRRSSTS

[10] = molecular target: DDR2 (human) (UniProt Q16832)
[11] = molecular target: DYRK1A (human) (UniProt Q13627)
[12] = molecular target: EPHA3 (human) (UniProt P29320)
[13] = molecular target: ERBB4 (human) (UniProt Q15303)
[14] = molecular target: FGFR1 (human) (UniProt P11362)
[15] = molecular target: FGFR2 (human) (UniProt P21802)
[16] = molecular target: FGFR3 (human) (UniProt P22607)
[17] = molecular target: GRK6 (human) (UniProt P43250)
Chain of GRK6 (human) (P43250 whole entry, looked up): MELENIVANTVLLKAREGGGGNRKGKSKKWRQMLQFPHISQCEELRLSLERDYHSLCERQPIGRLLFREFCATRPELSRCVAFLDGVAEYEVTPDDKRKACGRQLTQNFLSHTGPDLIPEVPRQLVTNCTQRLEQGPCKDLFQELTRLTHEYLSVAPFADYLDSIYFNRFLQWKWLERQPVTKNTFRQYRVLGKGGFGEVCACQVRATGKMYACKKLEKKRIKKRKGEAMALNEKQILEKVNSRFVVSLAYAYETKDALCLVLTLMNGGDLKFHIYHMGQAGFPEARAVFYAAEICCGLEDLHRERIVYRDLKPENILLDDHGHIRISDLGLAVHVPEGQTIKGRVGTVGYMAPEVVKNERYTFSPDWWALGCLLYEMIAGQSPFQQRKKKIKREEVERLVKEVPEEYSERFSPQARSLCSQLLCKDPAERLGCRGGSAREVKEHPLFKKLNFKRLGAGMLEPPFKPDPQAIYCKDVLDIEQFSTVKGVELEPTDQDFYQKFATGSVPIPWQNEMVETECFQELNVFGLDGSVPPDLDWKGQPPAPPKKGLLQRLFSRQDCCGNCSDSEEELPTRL

[18] = molecular target: GSK3A (human) (UniProt P49840)
[19] = molecular target: HCK (human) (UniProt P08631)
Chain of HCK (human) (P08631 whole entry, looked up): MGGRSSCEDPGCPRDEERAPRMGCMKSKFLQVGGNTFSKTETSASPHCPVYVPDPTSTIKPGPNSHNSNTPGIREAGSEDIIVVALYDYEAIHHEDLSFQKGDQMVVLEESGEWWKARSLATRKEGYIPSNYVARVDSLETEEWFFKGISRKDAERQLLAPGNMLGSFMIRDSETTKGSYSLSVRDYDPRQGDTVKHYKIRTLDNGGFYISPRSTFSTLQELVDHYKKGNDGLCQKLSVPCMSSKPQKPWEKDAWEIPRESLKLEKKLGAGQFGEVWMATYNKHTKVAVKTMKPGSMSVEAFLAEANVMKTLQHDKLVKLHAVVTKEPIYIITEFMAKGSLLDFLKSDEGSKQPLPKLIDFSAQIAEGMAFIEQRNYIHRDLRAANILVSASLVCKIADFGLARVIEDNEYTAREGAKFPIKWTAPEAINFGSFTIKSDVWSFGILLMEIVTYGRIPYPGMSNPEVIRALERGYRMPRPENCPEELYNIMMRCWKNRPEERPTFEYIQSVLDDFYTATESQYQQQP

[20] = molecular target: IRAK1 (human) (UniProt P51617)
[21] = molecular target: JAK2 JH1 JH2 (human) (UniProt O60674)
[22] = molecular target: LTK (human) (UniProt P29376)
[23] = molecular target: MAP3K7 TAB1 (human) (UniProt O43318+Q15750)
[24] = molecular target: MARK2 (human) (UniProt Q7KZI7)
[25] = molecular target: MLTK (human) (UniProt Q9NYL2)
[26] = molecular target: MYLK (human) (UniProt Q15746)
[27] = molecular target: NEK4 (human) (UniProt P51957)
[28] = molecular target: PKN2 (human) (UniProt Q16513)
[29] = molecular target: PLK2 (human) (UniProt Q9NYY3)
Chain of PLK2 (human) (Q9NYY3 whole entry, looked up): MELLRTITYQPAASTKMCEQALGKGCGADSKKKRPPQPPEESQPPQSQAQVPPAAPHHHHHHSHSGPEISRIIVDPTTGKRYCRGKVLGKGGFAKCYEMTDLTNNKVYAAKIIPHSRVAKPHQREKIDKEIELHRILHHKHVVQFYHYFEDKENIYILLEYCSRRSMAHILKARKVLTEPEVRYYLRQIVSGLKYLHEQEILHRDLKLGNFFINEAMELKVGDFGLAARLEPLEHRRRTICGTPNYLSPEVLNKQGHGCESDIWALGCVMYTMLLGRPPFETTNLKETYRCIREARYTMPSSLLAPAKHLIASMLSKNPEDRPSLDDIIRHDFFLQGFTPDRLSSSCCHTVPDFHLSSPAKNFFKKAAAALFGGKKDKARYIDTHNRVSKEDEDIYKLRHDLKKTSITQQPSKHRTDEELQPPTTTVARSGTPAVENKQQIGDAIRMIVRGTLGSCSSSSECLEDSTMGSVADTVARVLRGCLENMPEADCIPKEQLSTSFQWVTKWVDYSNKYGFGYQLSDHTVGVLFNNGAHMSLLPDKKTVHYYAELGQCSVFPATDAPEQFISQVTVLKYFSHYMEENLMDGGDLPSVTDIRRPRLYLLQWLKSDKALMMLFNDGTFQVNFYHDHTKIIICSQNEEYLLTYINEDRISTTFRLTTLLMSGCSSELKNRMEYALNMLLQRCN

[30] = molecular target: PRKACA (human) (UniProt P17612)
[31] = molecular target: PRKCA (human) (UniProt P17252)
[32] = molecular target: PRKX (human) (UniProt P51817)
[33] = molecular target: RPS6KA4 KD2 (human) (UniProt O75676)
[34] = molecular target: RPS6KA6 KD1 KD2 (human) (UniProt Q9UK32)
[35] = molecular target: SIK2 (human) (UniProt Q9H0K1)
[36] = molecular target: SRPK1 (human) (UniProt Q96SB4)
[37] = molecular target: STK16 (human) (UniProt O75716)
[38] = molecular target: STK39 (human) (UniProt Q9UEW8)
[39] = molecular target: TTK (human) (UniProt P33981)
Chain of TTK (human) (P33981 whole entry, looked up): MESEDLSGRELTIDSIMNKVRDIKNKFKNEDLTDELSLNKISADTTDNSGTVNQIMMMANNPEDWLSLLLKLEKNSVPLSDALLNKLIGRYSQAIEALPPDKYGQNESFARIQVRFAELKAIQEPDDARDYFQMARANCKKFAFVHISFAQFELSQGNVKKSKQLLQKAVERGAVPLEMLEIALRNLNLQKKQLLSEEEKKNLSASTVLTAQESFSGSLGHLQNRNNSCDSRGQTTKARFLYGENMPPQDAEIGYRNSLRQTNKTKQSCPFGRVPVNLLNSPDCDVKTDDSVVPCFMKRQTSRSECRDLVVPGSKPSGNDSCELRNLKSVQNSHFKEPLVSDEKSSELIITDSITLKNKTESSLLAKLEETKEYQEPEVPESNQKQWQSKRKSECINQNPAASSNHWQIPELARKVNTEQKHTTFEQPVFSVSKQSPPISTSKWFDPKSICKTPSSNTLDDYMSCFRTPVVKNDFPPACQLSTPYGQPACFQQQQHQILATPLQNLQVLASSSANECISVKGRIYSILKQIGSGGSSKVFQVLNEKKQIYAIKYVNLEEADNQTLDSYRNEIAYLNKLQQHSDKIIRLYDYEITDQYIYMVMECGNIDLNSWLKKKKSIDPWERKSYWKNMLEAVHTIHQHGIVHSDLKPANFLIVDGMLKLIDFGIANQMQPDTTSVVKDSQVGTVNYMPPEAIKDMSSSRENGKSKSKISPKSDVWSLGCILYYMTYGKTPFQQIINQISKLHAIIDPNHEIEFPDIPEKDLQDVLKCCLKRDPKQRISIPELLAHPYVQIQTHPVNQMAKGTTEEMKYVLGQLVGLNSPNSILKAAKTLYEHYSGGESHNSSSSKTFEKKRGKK

[40] = molecular target: WNK2 (human) (UniProt Q9Y3S1)
[41] = molecular target: WNK3 (human) (UniProt Q9BYP7)
[42] = molecular target: ZAP70 (human) (UniProt P43403)

Chain of ALK (human) (Q9UM73 whole entry, looked up): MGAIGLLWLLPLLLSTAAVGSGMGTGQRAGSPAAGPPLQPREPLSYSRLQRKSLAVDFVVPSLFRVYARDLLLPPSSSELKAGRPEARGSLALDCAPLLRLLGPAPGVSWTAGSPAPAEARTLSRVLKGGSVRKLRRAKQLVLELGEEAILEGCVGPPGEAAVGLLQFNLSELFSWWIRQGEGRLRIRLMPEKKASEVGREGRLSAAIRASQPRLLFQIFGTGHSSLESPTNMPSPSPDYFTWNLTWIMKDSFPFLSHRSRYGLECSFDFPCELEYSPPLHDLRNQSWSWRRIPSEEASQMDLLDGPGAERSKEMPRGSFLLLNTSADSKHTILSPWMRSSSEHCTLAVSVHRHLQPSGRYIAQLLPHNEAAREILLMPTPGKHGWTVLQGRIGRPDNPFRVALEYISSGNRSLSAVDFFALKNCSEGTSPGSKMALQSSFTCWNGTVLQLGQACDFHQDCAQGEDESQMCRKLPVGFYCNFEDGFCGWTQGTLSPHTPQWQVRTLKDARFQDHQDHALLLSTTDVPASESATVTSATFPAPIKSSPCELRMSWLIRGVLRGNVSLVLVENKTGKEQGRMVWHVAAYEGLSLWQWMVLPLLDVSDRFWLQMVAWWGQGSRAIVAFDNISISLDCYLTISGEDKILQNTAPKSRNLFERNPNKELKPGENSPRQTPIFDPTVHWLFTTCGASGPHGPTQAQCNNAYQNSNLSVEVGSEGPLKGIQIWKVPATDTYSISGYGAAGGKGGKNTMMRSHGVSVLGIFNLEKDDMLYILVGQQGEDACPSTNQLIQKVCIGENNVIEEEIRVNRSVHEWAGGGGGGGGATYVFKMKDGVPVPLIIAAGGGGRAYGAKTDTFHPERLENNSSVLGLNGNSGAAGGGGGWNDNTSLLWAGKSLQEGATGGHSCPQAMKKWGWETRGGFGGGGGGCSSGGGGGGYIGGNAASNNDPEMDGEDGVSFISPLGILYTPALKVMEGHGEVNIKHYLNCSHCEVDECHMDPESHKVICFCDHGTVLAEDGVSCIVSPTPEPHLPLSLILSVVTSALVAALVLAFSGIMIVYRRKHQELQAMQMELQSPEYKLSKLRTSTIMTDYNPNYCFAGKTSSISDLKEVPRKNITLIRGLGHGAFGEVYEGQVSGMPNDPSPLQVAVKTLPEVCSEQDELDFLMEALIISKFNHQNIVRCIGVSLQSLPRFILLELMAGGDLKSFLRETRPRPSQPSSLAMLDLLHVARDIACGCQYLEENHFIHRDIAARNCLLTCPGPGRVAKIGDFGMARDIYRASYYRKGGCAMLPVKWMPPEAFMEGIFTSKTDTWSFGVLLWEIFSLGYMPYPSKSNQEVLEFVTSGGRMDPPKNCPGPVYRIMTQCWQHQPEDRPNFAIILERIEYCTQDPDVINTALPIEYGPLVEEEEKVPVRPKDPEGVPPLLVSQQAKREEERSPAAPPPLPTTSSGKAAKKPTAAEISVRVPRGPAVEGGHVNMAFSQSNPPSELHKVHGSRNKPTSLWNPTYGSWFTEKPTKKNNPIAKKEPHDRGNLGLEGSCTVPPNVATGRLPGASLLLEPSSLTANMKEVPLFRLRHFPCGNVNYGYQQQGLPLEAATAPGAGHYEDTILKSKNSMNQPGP

Cc1ccc(NC(=O)c2ccc(CN3CCN(C)CC3)cc2)cc1Nc1nc(-c2cccnc2)cs1
residual activity [1]: 103%
residual activity [2]: 57.5%
residual activity [3]: 99.9%
residual activity [4]: 101%
residual activity [5]: 90.5%
residual activity [6]: 86%
residual activity [7]: 104%
residual activity [8]: 99.2%
residual activity [9]: 104%
residual activity [10]: 36.4%
residual activity [11]: 106%
residual activity [12]: 90.3%
residual activity [13]: 93.5%
residual activity [14]: 103%
residual activity [15]: 100%
residual activity [16]: 94.3%
residual activity [17]: 104%
residual activity [18]: 101%
residual activity [19]: 55.7%
residual activity [20]: 104%
residual activity [21]: 96.3%
residual activity [22]: 102%
residual activity [23]: 98.6%
residual activity [24]: 104%
residual activity [25]: 86.8%
residual activity [26]: 96.2%
residual activity [27]: 92.4%
residual activity [28]: 108%
residual activity [29]: 97.9%
residual activity [30]: 104%
residual activity [31]: 110%
residual activity [32]: 99.5%
residual activity [33]: 101%
residual activity [34]: 103%
residual activity [35]: 99.7%
residual activity [36]: 98.9%
residual activity [37]: 103%
residual activity [38]: 94%
residual activity [39]: 112%
residual activity [40]: 99.2%
residual activity [41]: 99.9%
residual activity [42]: 112%

From the kinase profiling compilation of Christmann-Franck et al. (2016)
